The source made the active and inactive calls.
What was measured:
Cytochrome P450 2C9 = Cytochrome P450 2C9 (Homo sapiens, UniProt P11712)
Cytochrome P450 1A2 = target: T1, Cytochrome P450 1A2 (Homo sapiens, UniProt P05177);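 further: PubChem cytochrome P450 panel assay, CYP1A2 panel member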
T1 sequence (P05177 whole entry): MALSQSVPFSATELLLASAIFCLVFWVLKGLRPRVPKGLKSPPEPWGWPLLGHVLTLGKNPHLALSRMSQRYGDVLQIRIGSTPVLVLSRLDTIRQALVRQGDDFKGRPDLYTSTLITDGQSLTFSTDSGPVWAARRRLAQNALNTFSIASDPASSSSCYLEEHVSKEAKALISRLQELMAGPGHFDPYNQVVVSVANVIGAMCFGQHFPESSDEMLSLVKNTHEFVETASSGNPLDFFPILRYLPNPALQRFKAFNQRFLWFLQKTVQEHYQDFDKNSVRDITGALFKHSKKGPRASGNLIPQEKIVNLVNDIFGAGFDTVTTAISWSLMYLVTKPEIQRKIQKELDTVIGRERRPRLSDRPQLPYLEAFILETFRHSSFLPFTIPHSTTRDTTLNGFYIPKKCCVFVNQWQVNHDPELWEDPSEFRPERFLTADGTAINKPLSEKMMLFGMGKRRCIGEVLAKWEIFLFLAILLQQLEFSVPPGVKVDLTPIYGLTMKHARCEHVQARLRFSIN

[1] = NIH3T3 cell viability loss – ATP luminescence, mouse fibroblasts, counter-screen, dose response (AID 2010); assay type: functional, cell-based;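 further: cells exposed to compound for about 90 hours before reading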
[2] = Trypanosoma cruzi growth suppression in host cells – NIH3T3 host cells, beta-gal luminescence, confirmation (AID 2044); assay type: functional, cell-based;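 further: intracellular parasites grown in NIH/3T3 mouse fibroblasts as host cells; luminescent beta-galactosidase reporter signal from transgenic T. cruzi replicating inside host cells; inhibitors lower the luminescence signal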
Cytochrome P450 3A4 = Cytochrome P450 3A4 (Homo sapiens, UniProt P08684);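 further: CYP3A4 tested as one member of a cytochrome P450 panel screen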
Sequence of Cytochrome P450 3A4 (P08684 whole entry): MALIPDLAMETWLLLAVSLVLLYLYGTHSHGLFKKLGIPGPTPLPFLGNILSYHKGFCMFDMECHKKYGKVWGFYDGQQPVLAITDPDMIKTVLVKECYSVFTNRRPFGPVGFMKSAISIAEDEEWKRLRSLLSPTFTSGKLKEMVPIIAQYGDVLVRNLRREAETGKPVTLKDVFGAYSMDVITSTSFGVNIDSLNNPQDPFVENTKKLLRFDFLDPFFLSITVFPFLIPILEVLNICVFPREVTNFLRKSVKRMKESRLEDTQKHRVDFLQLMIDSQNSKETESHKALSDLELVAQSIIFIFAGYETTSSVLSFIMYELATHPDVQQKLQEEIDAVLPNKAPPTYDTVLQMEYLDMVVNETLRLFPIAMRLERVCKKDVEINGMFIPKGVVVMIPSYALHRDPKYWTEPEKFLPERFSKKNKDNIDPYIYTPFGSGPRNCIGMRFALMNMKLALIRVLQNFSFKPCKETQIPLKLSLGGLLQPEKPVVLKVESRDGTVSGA

Cytochrome P450 2C19 = Cytochrome P450 2C19 (Homo sapiens, UniProt P33261); assay: Cytochrome panel assay with activity outcomes. Panel member name: p450-cyp2c19 Compounds with AC50 equal or less than 10 uM are considered active; assay type: functional
Sequence of Cytochrome P450 2C19 (P33261 whole entry): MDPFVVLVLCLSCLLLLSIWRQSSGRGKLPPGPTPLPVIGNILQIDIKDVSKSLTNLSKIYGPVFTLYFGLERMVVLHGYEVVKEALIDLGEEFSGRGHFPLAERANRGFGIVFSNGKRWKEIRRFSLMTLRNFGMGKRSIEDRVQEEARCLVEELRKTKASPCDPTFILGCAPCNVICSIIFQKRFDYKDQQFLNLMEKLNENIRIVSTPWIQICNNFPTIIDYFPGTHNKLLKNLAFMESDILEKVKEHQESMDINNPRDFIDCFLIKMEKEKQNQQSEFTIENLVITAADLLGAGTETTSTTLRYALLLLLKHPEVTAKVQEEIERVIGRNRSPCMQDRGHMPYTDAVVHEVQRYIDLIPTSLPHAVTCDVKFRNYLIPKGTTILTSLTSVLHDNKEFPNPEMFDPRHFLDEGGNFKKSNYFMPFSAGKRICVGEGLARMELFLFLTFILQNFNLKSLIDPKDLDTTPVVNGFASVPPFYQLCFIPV

[3] = Luminescence Cell-Based Dose Response HTS to Identify Inhibitors of 5'UTR Stem-Loop Driven Prion Protein mRNA Translation in H4 Neuroglioblastoma Cells. [Related pubchem assays: 1827 (Project Summary), 1813 (Primary HTS)]; assay type: functional
[4] = alpha-synuclein stem-loop luciferase translation blockers – H4 neuroglioma cells, luminescence, confirmation (AID 1988); assay type: functional, cell-based
Streptococcus = assay: GAS UMAA2166 growth inhibition – luminescence, BacTiterGlo, counter-screen for streptokinase expression inhibitor project, dose response (AID 1915); assay type: functional, organism-based;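 further: potency for reduction of bacterial viability or growth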
[5] = system: Streptococcus sp. 'group A'; assay: Streptococcus pyogenes SK(-)GAS viability under kanamycin – luminescence, BacTiterGlo, confirmation, counter-screen for streptokinase expression inhibitor project, dose response (AID 1900); assay type: functional, organism-based

Sequence of Cytochrome P450 2C9 (P11712 whole entry): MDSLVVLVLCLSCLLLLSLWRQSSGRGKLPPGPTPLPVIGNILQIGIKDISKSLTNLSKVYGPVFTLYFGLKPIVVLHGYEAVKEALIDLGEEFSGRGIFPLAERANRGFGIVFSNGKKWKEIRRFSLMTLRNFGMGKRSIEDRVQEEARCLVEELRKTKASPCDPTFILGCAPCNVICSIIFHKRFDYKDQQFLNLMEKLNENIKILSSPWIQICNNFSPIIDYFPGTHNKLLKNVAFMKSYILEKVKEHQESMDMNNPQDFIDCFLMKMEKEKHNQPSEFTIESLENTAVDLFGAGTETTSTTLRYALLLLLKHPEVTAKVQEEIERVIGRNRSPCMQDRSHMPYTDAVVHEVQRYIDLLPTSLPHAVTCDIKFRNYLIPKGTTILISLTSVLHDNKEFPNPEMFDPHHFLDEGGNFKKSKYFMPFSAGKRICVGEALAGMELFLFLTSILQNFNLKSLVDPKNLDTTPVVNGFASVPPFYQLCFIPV

CCCS(=O)(=O)N1CCCC(C(=O)NCCN2CCC(Cc3ccccc3)CC2)C1 (stereo not drawn)
AC50 (Cytochrome P450 2C9): 5.01 µM (inconclusive)

Cc1c(S(=O)(=O)O)ccc(/N=N\c2c(O)c(C(=O)O)cc3ccccc23)c1Cl
AC50 (Cytochrome P450 1A2): 5.01 µM (inconclusive)

CC(C)(C)c1ccccc1OCC(=O)Nc1ccccc1C(=O)NCc1cccnc1
EC50 [1]: > 60 µM (not active)
EC50 [2]: 3.61 µM (active)

N#CCCn1c(=O)c(-c2ccccc2)nc2cnc(N3CCOCC3)nc21
AC50 (Cytochrome P450 1A2): 10 µM (inconclusive)

Cc1nc2cnc(N3CCN(C)CC3)nc2n(CCc2ccccc2)c1=O
AC50 (Cytochrome P450 3A4): 15.8 µM (inconclusive)

COc1ccc(N(C(=O)COc2ccccc2OC)S(=O)(=O)c2ccc(C)cc2)cc1
AC50 (Cytochrome P450 1A2): 4.47 µM (inconclusive)

COc1ccccc1-c1cc2nc(C)c(CCC(=O)NCc3ccc(F)cc3)c(C)n2n1
EC50 [1]: > 60 µM (not active)
EC50 [2]: 2.06 µM (active)

Cc1cc(C)c(C#N)c(SCC(=O)Nc2nnc(-c3ccccc3)s2)n1
EC50 [1]: > 30 µM (not active)
EC50 [2]: > 30 µM (not active)

NC(=S)SCCC(=O)O
AC50 (Cytochrome P450 1A2): 1.58 µM (inconclusive)

COc1ccc(C(=O)Nc2cc(OC)cc(OC)c2)cc1
AC50 (Cytochrome P450 2C9): 22.4 µM (inconclusive)

CCCCN1C(=O)CCC(C(=O)O)C1c1ccccc1 (stereo not drawn)
AC50 (Cytochrome P450 2C19): inconclusive

O=c1cnc2cnc(N3CCNCC3)nc2n1Cc1ccc(F)cc1
AC50 (Cytochrome P450 2C9): 20 µM (inconclusive)

Cc1ccc(C)c(NC(=O)C2(C)CC3c4ccccc4C2c2ccccc23)c1 (stereo not drawn)
AC50 (Cytochrome P450 2C9): 10 µM (inconclusive)
AC50 (Cytochrome P450 2C19; read-out: AC50): 0.00562 µM (inconclusive)

COC(=O)[C@@]1(Cc2ccc(F)cc2)[C@H]2c3cc(C(=O)N4CCCC4)n(CCF)c3C[C@H]2CN1C(=O)c1ccccc1
AC50 (Cytochrome P450 1A2): 15.8 µM (inconclusive)

Cc1nc2cnc(N3CCNCC3)nc2n(C)c1=O
AC50 (Cytochrome P450 3A4): 15.8 µM (inconclusive)
AC50 (Cytochrome P450 2C19): inconclusive

COc1ccc(/C=N/NC(=O)CCCC(=O)NC2CCCCC2)cc1
AC50 (Cytochrome P450 2C9): 10 µM (inconclusive)
AC50 (Cytochrome P450 2C19; read-out: AC50): 14.1 µM (inconclusive)

COCc1nc2c([nH]1)c(=O)n(C)c(=O)n2CC(C)C
AC50 (Cytochrome P450 3A4): 1.26 µM (inconclusive)

Cn1cccc1C(=O)N1CCC2(CCN(Cc3ccncc3)CC2)CC1
AC50 (Cytochrome P450 1A2): 15.8 µM (inconclusive)
AC50 (Cytochrome P450 3A4): 12.6 µM (inconclusive)
AC50 (Cytochrome P450 2C19; read-out: AC50): 15.8 µM (inconclusive)

CC(C)(C)c1cc(Br)c(O)c(CN(Cc2cc(C(C)(C)C)cc(Br)c2O)C2CCCCC2)c1
AC50 (Cytochrome P450 1A2): 5.01 µM (inconclusive)
AC50 (Cytochrome P450 2C9): 3.16 µM (inconclusive)

C=CCNC(=O)c1ccc(-c2nc(-c3ccc(Cl)c(Cl)c3)cs2)cc1
AC50 (Cytochrome P450 3A4): 7.94 µM (inconclusive)
AC50 (Cytochrome P450 2C19; read-out: AC50): 28.2 µM (inconclusive)

CCN(c1ccccc1)S(=O)(=O)c1cc(C(=O)Nc2ccc(Br)cc2)ccc1F
EC50 [1]: > 60 µM (not active)
EC50 [2]: 2.66 µM (active)

Cc1nc2cnc(N3CCNCC3)nc2n(Cc2ccc(F)cc2)c1=O
AC50 (Cytochrome P450 2C9): 25.1 µM (inconclusive)
AC50 (Cytochrome P450 2C19): inconclusive

COc1ccccc1CNc1cc(-c2ccccc2Cl)ncn1
AC50 (Cytochrome P450 3A4): 39.8 µM (inconclusive)

COc1cccc(/N=c2\oc3c(C)ncc(CO)c3cc2C(N)=O)c1
AC50 (Cytochrome P450 2C9): 11.2 µM (inconclusive)
AC50 (Cytochrome P450 2C19): inconclusive

CN(C)CN1C(=O)S/C(=C2/C(=O)N(CN(C)C)c3ccccc32)C1=O
AC50 (Cytochrome P450 1A2): 0.794 µM (inconclusive)

CC(=O)OC[C@@H]1O[C@H](C/C=N\OCC[C@H]2C=C[C@H](OC(C)=O)[C@@H](COC(C)=O)O2)C=C[C@@H]1OC(C)=O
AC50 (Cytochrome P450 3A4): 3.16 µM (inconclusive)
AC50 (Cytochrome P450 2C19): inconclusive

CC(C)(Oc1ccc(-c2cccc3ccccc23)cc1)C(=O)O
AC50 (Cytochrome P450 2C9): 0.398 µM (inconclusive)
AC50 (Cytochrome P450 2C19): inconclusive

COc1cccc(CNCCNC(=O)c2nonc2N)c1
AC50 (Cytochrome P450 1A2): 39.8 µM (inconclusive)

CC(C)N(CCNC(=O)C1CCN(S(=O)(=O)N2CCOCC2)CC1)Cc1ccccc1
AC50 (Cytochrome P450 2C9): 20 µM (inconclusive)
AC50 (Cytochrome P450 2C19; read-out: AC50): 39.8 µM (inconclusive)

Cc1ccc2c(c1)C1CN(C)CCC1N2C(=S)NC(=O)c1ccc(Br)cc1 (stereo not drawn)
EC50 [1]: 41.5 µM (active)
EC50 [2]: 0.828 µM (active)

CC(C)Oc1ccc(CSC(=N)N)cc1
AC50 (Cytochrome P450 1A2): 22.4 µM (inconclusive)
AC50 (Cytochrome P450 2C19; read-out: AC50): 5.62 µM (inconclusive)

Fc1cccc(C[n+]2csc3ccccc32)c1
EC50 [1]: > 60 µM (not active)
EC50 [2]: 1.99 µM (active)

CCCCC(=O)Nc1nnc(SCC(=O)NC2CCCC2)s1
AC50 (Cytochrome P450 2C19; read-out: AC50): 35.5 µM (inconclusive)

O=C(NCc1cccnc1)c1ccc(-c2cc(Cl)ccc2Cl)o1
EC50 [1]: > 30 µM (not active)
EC50 [2]: 1.72 µM (active)

Cc1cc(N2CCN(c3ccccc3)CC2)nc(NCc2ccccc2)n1
EC50 [1]: > 30 µM (not active)
EC50 [2]: 0.809 µM (active)

CCN(C(=O)COC(=O)c1cc(-c2ccc3cc(OC)ccc3c2)nc2ccccc12)C1CCS(=O)(=O)C1 (stereo not drawn)
EC50 [3]: 13.9 µM (active)
EC50 [4]: 11 µM (active)

O=C(NC1CCCCC1)C1CC=CCC1C(=O)OCC(Cl)=C(Cl)Cl (stereo not drawn)
AC50 (Cytochrome P450 1A2): 25.1 µM (inconclusive)

N#C[C@H](Cc1ccc(O)cc1)c1ccc(O)cc1
AC50 (Cytochrome P450 2C9): 39.8 µM (inconclusive)
AC50 (Cytochrome P450 2C19; read-out: AC50): 2 µM (inconclusive)

C=CCNC(=O)c1onc(CSc2ccc(F)cc2)c1C(=O)O
AC50 (Cytochrome P450 3A4): 22.4 µM (inconclusive)

CC(=O)c1ccc(N2CCN(c3ccc(S(=O)(=O)NCCN(C)C)cc3[N+](=O)[O-])CC2)cc1
EC50 [1]: > 16 µM (not active)
EC50 [2]: 0.454 µM (active)

CCN1CCN(Cc2ccc(NC(=O)c3cc(NC(=O)c4cc(-c5ccc(OC)cc5)[nH]n4)cc(OC)c3)cc2C(F)(F)F)CC1
EC50 (Streptococcus): 7.21 µM (active)
EC50 [5]: 4.15 µM (active)

COc1nnc(OC)c2ccccc12
AC50 (Cytochrome P450 2C19; read-out: AC50): 0.0631 µM (inconclusive)

COc1ccc(Oc2ncc3nc(C)c(=O)n(CCC#N)c3n2)cc1
AC50 (Cytochrome P450 1A2): 25.1 µM (inconclusive)

O=S(=O)(c1ccc2ccccc2c1)N1CCC(c2nc(-c3ccncc3)no2)CC1
EC50 [1]: > 60 µM (not active)
EC50 [2]: 0.564 µM (active)

C=C[C@]1(C)C[C@@H](OC(=O)CSCCN(CC)CC)[C@]2(C)C(C)CC[C@]3(CCC(=O)[C@H]32)[C@@H](C)[C@@H]1O (stereo partly drawn)
EC50 (Streptococcus): 0.182 µM (active)
EC50 [5]: < 0.06 µM (active)

CCOc1c2ccc(C(=O)NCCCCc3ccccc3)cc2nn1CC
AC50 (Cytochrome P450 1A2): 6.31 µM (inconclusive)
AC50 (Cytochrome P450 2C19; read-out: AC50): 8.91 µM (inconclusive)

O=C(c1cccc(C(F)(F)F)c1)C1CCCN(Cc2ccc(OCCO)cc2)C1 (stereo not drawn)
EC50 [1]: > 30 µM (not active)
EC50 [2]: 0.402 µM (active)

CNc1cc(-c2ccccc2CN(C)C)ncn1
AC50 (Cytochrome P450 1A2): 31.6 µM (inconclusive)

O=C(O)C1CCN(c2ncnc3ccc(-c4ccccc4C(F)(F)F)cc23)CC1
AC50 (Cytochrome P450 3A4): 39.8 µM (inconclusive)

CCSc1nnc2n(N)c(=O)c3ccccc3n12
AC50 (Cytochrome P450 3A4): 15.8 µM (inconclusive)

CC(C)CCn1nnnc1C(c1ccc(F)cc1)N1CCN(C(=O)c2ccco2)CC1 (stereo not drawn)
AC50 (Cytochrome P450 2C9): 11.2 µM (inconclusive)

COc1ccccc1CNc1ncnc2ccc(-c3cccnc3)cc12
AC50 (Cytochrome P450 2C19; read-out: AC50): 20 µM (inconclusive)

CCN1CCN(c2ccc(S(=O)(=O)N3CCCCC3)cc2NC(=O)c2ccc(C)o2)CC1
EC50 [1]: > 60 µM (not active)
EC50 [2]: 2.01 µM (active)

CCCn1c(=O)c2c(ncn2C)n(CCC)c1=O
AC50 (Cytochrome P450 3A4): 20 µM (inconclusive)

C/C(=N/CCN1CCN(C(=S)Nc2ccccc2)CC1)C1=C(O)CC(C)(C)CC1=O
AC50 (Cytochrome P450 2C9): 28.2 µM (inconclusive)

Cc1cc(C(=O)N2CCCC(N3CCN(c4ccccc4C)CC3)C2)n(C)n1 (stereo not drawn)
EC50 [1]: > 30 µM (not active)
EC50 [2]: > 30 µM (not active)

Cc1ccc(S(=O)(=O)N[C@H](CN)C(=O)O)cc1
AC50 (Cytochrome P450 2C19): inconclusive
